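Briefly, cells in 96-well plates were exposed to five compound concentrations for 48 h, and endpoints were estimated by linear interpolation. The concentration for 50% growth inhibition is given as GI50.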 Activity calls are given as the source filed them. Rule as the data show it: active = GI50 up to about 1.1 µM and inactive = higher.
What was measured:
Experiment in all cases: DTP human tumour cell line panel, 48 h
A498 = tested on: A498
A549 = tested on: A549
CCRF-CEM = tested on: CCRF-CEM
HOP-92 = tested on: HOP-92
IGROV-1 = tested on: IGROV-1
KM12 = tested on: KM12
MCF7 = tested on: MCF7
MDA-MB-435 = tested on: MDA-MB-435
MDA-N = tested on: MDA-N
NCI/ADR-RES = tested on: NCI/ADR-RES
OVCAR-3 = tested on: OVCAR-3
OVCAR-4 = tested on: OVCAR-4
PC-3 = tested on: PC-3
SK-MEL-28 = tested on: SK-MEL-28
SK-MEL-5 = tested on: SK-MEL-5
SNB-75 = tested on: SNB-75
TK-10 = tested on: TK-10
UACC-62 = tested on: UACC-62
UO-31 = tested on: UO-31

With `Nc1c(-c2ccc(Cl)c(Cl)c2)c2ccc([N+](=O)[O-])cc2c(=O)n1-c1nc2ccccc2s1` the GI50 (A498) was 0.566 µM (active), the GI50 (A549) was 0.407 µM (active) and the GI50 (CCRF-CEM) was 0.223 µM (active). The GI50 (HOP-92) was 0.296 µM (active), the GI50 (IGROV-1) was 0.796 µM (active) and the GI50 (KM12) was 0.64 µM (active). The GI50 (MCF7) was 0.401 µM (active), the GI50 (MDA-MB-435) was 0.582 µM (active) and the GI50 (MDA-N) was 0.697 µM (active). For the same molecule, the GI50 (NCI/ADR-RES) was 0.577 µM (active), the GI50 (OVCAR-3) was 0.382 µM (active) and the GI50 (OVCAR-4) was 1.19 µM (inactive). For the same molecule, the GI50 (PC-3) was 0.311 µM (active), the GI50 (SK-MEL-28) was 18.2 µM (inactive) and the GI50 (SK-MEL-5) was 0.328 µM (active). The GI50 (SNB-75) was 1.07 µM (active), the GI50 (TK-10) was 0.594 µM (active) and the GI50 (UACC-62) was 0.419 µM (active). The GI50 (UO-31) was 0.445 µM (active).
With `Brc1cccc(/N=N/N2CCCC2)c1` the GI50 (A498) was > 100 µM (inactive), the GI50 (CCRF-CEM) was 49.2 µM (inactive) and the GI50 (HOP-92) was 63.1 µM (inactive). The GI50 (IGROV-1) was > 100 µM (inactive), the GI50 (KM12) was 93.5 µM (inactive) and the GI50 (MCF7) was > 100 µM (inactive). For the same molecule, the GI50 (MDA-MB-435) was > 100 µM (inactive), the GI50 (MDA-N) was > 100 µM (inactive) and the GI50 (NCI/ADR-RES) was 81.5 µM (inactive). For the same molecule, the GI50 (OVCAR-3) was > 100 µM (inactive), the GI50 (OVCAR-4) was > 100 µM (inactive) and the GI50 (PC-3) was 71.3 µM (inactive). The GI50 (SK-MEL-5) was 66.2 µM (inactive), the GI50 (SNB-75) was 65.5 µM (inactive) and the GI50 (TK-10) was > 100 µM (inactive). The GI50 (UACC-62) was > 100 µM (inactive) and the GI50 (UO-31) was 56.1 µM (inactive).
In the case of `Cc1c2c(c(O)c3c(O)cccc13)C(=O)C1(O)C(=O)C(C(=O)NCNc3ccc(C(N)=O)cn3)=C(O)C(N(C)C)C1C2` (stereo unspecified), the GI50 (A498) is reported as 2.51 µM (inactive), the GI50 (A549) is reported as 2.96 µM (inactive) and the GI50 (CCRF-CEM) is reported as 2.94 µM (inactive). The GI50 (HOP-92) was 2.01 µM (inactive), the GI50 (IGROV-1) was 1.82 µM (inactive) and the GI50 (KM12) was 3.53 µM (inactive). For the same molecule, the GI50 (MCF7) was 9.27 µM (inactive), the GI50 (MDA-MB-435) was 3.69 µM (inactive) and the GI50 (MDA-N) was 4.49 µM (inactive). The GI50 (NCI/ADR-RES) was 5.5 µM (inactive), the GI50 (OVCAR-3) was 2.49 µM (inactive) and the GI50 (OVCAR-4) was 1.93 µM (inactive). For the same molecule, the GI50 (PC-3) was 3.68 µM (inactive), the GI50 (SK-MEL-28) was 3.53 µM (inactive) and the GI50 (SK-MEL-5) was 2.16 µM (inactive). For the same molecule, the GI50 (SNB-75) was 2.84 µM (inactive), the GI50 (TK-10) was 5.15 µM (inactive) and the GI50 (UACC-62) was 3.39 µM (inactive).
In the case of `c1ccc(C(CCN2CCCC2)c2ccccn2)cc1` (stereo unspecified), the GI50 (A498) is reported as > 100 µM (inactive), the GI50 (A549) is reported as > 100 µM (inactive) and the GI50 (HOP-92) is reported as > 100 µM (inactive). The GI50 (IGROV-1) was > 100 µM (inactive), the GI50 (KM12) was > 100 µM (inactive) and the GI50 (MCF7) was > 100 µM (inactive). The GI50 (MDA-MB-435) was > 100 µM (inactive), the GI50 (MDA-N) was > 100 µM (inactive) and the GI50 (NCI/ADR-RES) was > 100 µM (inactive). The GI50 (OVCAR-4) was > 100 µM (inactive), the GI50 (PC-3) was > 100 µM (inactive) and the GI50 (SK-MEL-28) was > 100 µM (inactive). The GI50 (SK-MEL-5) was > 100 µM (inactive), the GI50 (SNB-75) was > 100 µM (inactive) and the GI50 (TK-10) was > 100 µM (inactive). For the same molecule, the GI50 (UACC-62) was > 100 µM (inactive) and the GI50 (UO-31) was > 100 µM (inactive).
In the case of `CCOC(=O)Nc1sc2c(c1C#N)CC(C)CC2` (stereo unspecified), the GI50 (A549) is reported as 5.06 µM (inactive), the GI50 (HOP-92) is reported as 25.4 µM (inactive) and the GI50 (IGROV-1) is reported as 7.52 µM (inactive). For the same molecule, the GI50 (KM12) was 3.9 µM (inactive), the GI50 (MCF7) was 3.96 µM (inactive) and the GI50 (MDA-MB-435) was 1.32 µM (inactive). The GI50 (MDA-N) was 1.6 µM (inactive), the GI50 (NCI/ADR-RES) was 1.96 µM (inactive) and the GI50 (OVCAR-3) was 5.87 µM (inactive). The GI50 (OVCAR-4) was 18.7 µM (inactive), the GI50 (PC-3) was 5.35 µM (inactive) and the GI50 (SK-MEL-28) was 17.1 µM (inactive). For the same molecule, the GI50 (SK-MEL-5) was 4.8 µM (inactive), the GI50 (SNB-75) was 2.82 µM (inactive) and the GI50 (TK-10) was 6.62 µM (inactive). The GI50 (UACC-62) was 4.49 µM (inactive) and the GI50 (UO-31) was 8.91 µM (inactive).
`COc1cc2c(c(OC)c1OC)C(=O)c1c(O)cc(C)c(OC)c1C2=O` was tested, and the GI50 (A498) was > 100 µM (inactive), the GI50 (A549) was 77.3 µM (inactive) and the GI50 (CCRF-CEM) was > 10 µM (inactive). The GI50 (HOP-92) was > 100 µM (inactive), the GI50 (IGROV-1) was > 100 µM (inactive) and the GI50 (KM12) was > 100 µM (inactive). For the same molecule, the GI50 (MCF7) was > 100 µM (inactive), the GI50 (MDA-MB-435) was 91.8 µM (inactive) and the GI50 (MDA-N) was > 100 µM (inactive). The GI50 (NCI/ADR-RES) was 57.1 µM (inactive), the GI50 (OVCAR-3) was > 100 µM (inactive) and the GI50 (OVCAR-4) was > 100 µM (inactive). The GI50 (PC-3) was > 100 µM (inactive), the GI50 (SK-MEL-28) was 37.2 µM (inactive) and the GI50 (SK-MEL-5) was 39.4 µM (inactive). For the same molecule, the GI50 (SNB-75) was > 100 µM (inactive), the GI50 (TK-10) was 27.2 µM (inactive) and the GI50 (UO-31) was 85.3 µM (inactive).

Reference: ChEMBL document CHEMBL1201862, “PubChem BioAssay data set” (2004)
